# Source: patent publication US20200256877A1, “Microbiota Sequence Variants Of Tumor-Related Antigenic Epitopes” (ENTEROME S.A., priority 2017, published 2020)
# B1: human FOXM1 reference epitope FOXM1-H2 (SEQ ID NO: 59, LMDLSTTPL) (peptide)
# peptide: LMDLSTTPL
# notes: 9-mer peptide derived from human FOXM1; also called FOXM1-H2 pAg
# B2: human IL13RA2 reference epitope IL13RA2-H (SEQ ID NO: 1, WLPFGFILI) (peptide)
# peptide: WLPFGFILI
# notes: 9-mer peptide derived from human IL13RA2; also called IL13RA2-H pAg
# B3: bacterial peptide IL13RA2-B (SEQ ID NO: 18, FLPFGFILV) (peptide)
# peptide: FLPFGFILV
# notes: 9-mer synthetic peptide; also called IL13RA2-B pAg
# Columns and labels:
# [1] = test system: splenocytes (IFNγ secretion); assay: ELISPOT-IFNγ on splenocytes of BALB/c and C57BL/6 mice vaccinated with murine microbiota peptides (Example 16); format: in vivo, mouse; conditions: for T cell responses in the ELISPOT-IFNγ assay (in words): C57BL/6 mice (H2 Db B2) or BALB/c mice (H2 Ld B5), vaccination + OVA 323-339 + IFA, ex vivo stimulation with bacterial peptide; for T cell responses in the ELISPOT-IFNγ assay against the murine reference epitopes (in words): ex vivo stimulation with H2 Db M2 (C57BL/6) or H2 Ld M5 (BALB/c)
# Experimental: Briefly, BALB/c mice and C57BL/6 mice were assigned randomly to two experimental groups for each mouse strain, each group immunized with a specific vaccination peptide (vacc-pAg) combined to a common helper peptide (OVA 323-339 peptide; sequence: ISQAVHAAHAEINEAGR; SEQ ID NO: 164) and Incomplete Freund's Adjuvant (IFA) as shown in Table 23.
# (§1) The animals were immunized on day 0 (d0) with a prime injection, and on d14 with a boost injection. Each mouse was injected s.c. at tail base with 100 μL of an oil-based emulsion that contained: • 100 μg of vacc-pAg (25 μL of 4 mg/mL stock per mouse); • 150 μg of h-pAg (15 μL of 10 mg/mL stock per mouse); • 10 μL of PBS to reach a total volume of 50 μL (per mouse); • Incomplete Freund's Adjuvant (IFA) added at 1:1 (v:v) ratio (50 μL per mouse).
# Seven days after the boost injection (i.e. on d21), the animals were euthanized and the spleen was harvested. Splenocytes were prepared by mechanical disruption of the organ followed by 70 μm-filtering and Ficoll density gradient purification. Spleen weight, splenocyte number and viability were immediately assessed (Table 24).
# The splenocytes were used in an ELISPOT-IFNγ assay (Table X). Experimental conditions were repeated in quadruplets, using 2*10^5 total splenocytes per well, and were cultured in presence of vacc-pAg (10 μM), mice peptide homolog, positive control (1 ng/ml of Phorbol 12-myristate 13-acetate (PMA) and 500 ng/ml of Ionomycin) or medium-only to assess for their capacity to secrete IFNγ.
# The commercial ELISPOT-IFNγ kit (Diaclone Kit Mujrine IFNγ ELISpot) was used following the manufacturer's instructions, and the assay was performed after about 16 h of incubation.
# Spots were counted on a Grand ImmunoSpor S6 Ultimate UV Image Analyzer interfaced to the ImmunoSpot 5.4 software (CTL-Europe). Data plotting and statistical analysis were performed with the Prism-5 software (GraphPad Software Inc.).
# HLA-A*0201 = biological target: T1, HLA-A*0201 (Homo sapiens, UniProt P04439, D140Y/D185E/D98H/E176V/E277Q/G131W/G231S/I119V/I121R/I166T/I218V/L300P/L318F/N151K/N90K/P208A/P217A/Q86G/Q94H/R138H/R169H/T345S); assay: In vitro affinity of peptides to HLA-A*0201 on T2 cell line (FACS, anti-HLA-A2 labeling); format: cell-based; conditions: T2 cells; for Mean fluorescence intensity: 16 hours
# T1 construct: human tumoral cell T2 which expresses the HLA-A*0201 molecule; endogenous in cells; host or cells: T2 cells (human, TAP1/2 negative)
# Excerpt: A method for in vitro testing is well-known to the skilled person. For example, the skilled person may use the experimental protocol as validated for peptides presented by HLA-A*0201 in Tourdot et al., A general strategy to enhance immunogenicity of low-affinity HLA-A2.1-associated peptides: implication in the identification of cryptic tumor epitopes. Eur J Immunol. 2000 December; 30(12):3411-21. In this context, a reference peptide, such as HIV pol 589-597, may be additionally used in the test. This enables calculation of the in vitro affinity relative to the binding observed with the reference peptide, e.g. by the following equation:
# Relative affinity=concentration of each peptide inducing 20% of expression of HLA-A*0201/concentration of the reference peptide inducing 20% of expression of HLA-A*0201
# (where 100% is the level of HLA-A*0201 expression detected with the reference peptide, e.g. HIV pol 589-597, for example used at a 100 μM concentration).
# The experimental protocol is similar to the one that was validated for peptides presented by the HLA-A*0201 (Tourdot et al., A general strategy to enhance immunogenicity of low-affinity HLA-A2.1-associated peptides: implication in the identification of cryptic tumor epitopes. Eur J Immunol. 2000 December; 30(12):3411-21). Affinity measurement of the peptides is achieved with the human tumoral cell T2 which expresses the HLA-A*0201 molecule, but which is TAP1/2 negative and incapable of presenting endogenous peptides.
# (§2) T2 cells (2.10^5 cells per well) were incubated with decreasing concentrations of peptides from 100 μM to 0.1 μM in a AIMV medium supplemented with 100 ng/μl of human β2m at 37° C. for 16 hours. Cells were then washed two times and marked with the anti-HLA-A2 antibody coupled to PE (clone BB7.2, BD Pharmagen).
# The analysis was performed by FACS (Guava Easy Cyte). For each peptide concentration, the geometric mean of the labeling associated with the peptide of interest was subtracted from background noise and reported as a percentage of the geometric mean of the […] labeling obtained for the reference peptide HIV pol 589-597 at a concentration of 100 μM. The relative affinity is then determined as follows:
# relative affinity=concentration of each peptide inducing 20% of expression of HLA-A*0201/concentration of the reference peptide inducing 20% of expression of HLA-A*0201.
# The experimental protocol, materials and methods correspond to those outlined in Example 4, with the only difference that the above mentioned antigenic peptides were used.
# as §2, with “β2 m” for “β2m”
# [2] = test system: splenocytes (IFNγ secretion); assay: ELISPOT-IFNγ on splenocytes of β/A2/DR3 mice vaccinated with IL13RA2 peptides (Example 6); format: in vivo, mouse; conditions: for Percentage of ConA-induced response (mean+/-SEM), ELISPOT-IFNγ: β/A2/DR3 mice vaccinated s.c. d0 and d14 with labelled peptide (100 μg) + HHD-DR3 helper + IFA, d21
# Excerpt: Briefly, 14 β/A2/DR3 mice were assigned randomly (based on mouse sex and age) to two experimental groups, each immunized with a specific vaccination peptide (vacc-pAg) combined to a common helper peptide (h-pAg) (as outlined in Table 7 below). The vacc-pAg were compared in couples (group 1 vs. group 2). Thereby, both native and optimized versions of a single peptide were compared in each wave.
# as §1
# Seven days after the boost injection (i.e. on d21), the animals were euthanized and the spleen was harvested. Splenocytes were prepared by mechanical disruption of the organ followed by 70 μm-filtering and Ficoll density gradient purification.
# The splenocytes were immediately used in an ELISPOT-IFNγ assay (Table 8). Experimental conditions were repeated in quadruplets, using 2*10^5 total splenocytes per well, and were cultured in presence of vacc-pAg (10 μM), Concanavalin A (ConA, 2.5 μg/mL) or medium-only to assess for their capacity to secrete IFNγ. The commercial ELISPOT-IFNγ kit (Diaclone Kit Mujrine IFNγ ELISpot) was used following the manufacturer's instructions, and the assay was performed after about 16 h of incubation.
# Spots were counted on a Grand ImmunoSpot® S6 Ultimate UV Image Analyzer interfaced to the ImmunoSpot 5.4 software (CTL-Europe). Data plotting and statistical analysis were performed with the Prism-5 software (GraphPad Software Inc.).
# The data were then normalized as a number of specific spots (the average counts obtained in the ‘medium only’ condition being subtracted) per 10^6 total T cells.
# The individual average values (obtained from the quadruplicates) were next used to plot the group average values (see FIG. 3A). As the functional capacity of T cells might vary from individual to individual, the data were also expressed as the percentage of the ConA response per individual (see FIG. 3B).
# U87 cells = assay: In vitro cytotoxicity of CD3+ T cells from immunized mice against U87-MG cells (Example 7); format: cell-based, human; conditions: CD3+ T cells of HHD/DR3 mice immunized with labelled peptide, 72 hours co-culture with U87-MG, annexin V/DAPI
# Experimental: Briefly, […] T cells from mice immunized with IL13RA2-H or […] were used. These cells were obtained after sorting of splenocyte from immunized mice and were placed on top of U87 cells (tumor cells expressing IL13RA2).
# In more detail, CD3^+ T cells were purified from splenocytes of HHD mice immunized with IL13RA2-H (WLPFGFILI, SEQ ID NO: 1) or IL13RA2-B (FLPFGFILV, SEQ ID NO: 18). To this end, B6 β2m^ko HHD/DR3 mice were injected s.c. at tail base with 100 μL of an oil-based emulsion containing vaccination peptide plus helper peptide plus CFA (complete Freund's adjuvant), at day 0 and day 14 as described in Example 6. On d21, i.e. seven days after the boost injection, the animals were euthanized and the spleen was harvested. Splenocytes were prepared by mechanical disruption of the organ. CD3+ purification was performed using the mouse total T cells isolation kit from Miltenyi biotec using the recommended procedure. Efficient purification of cells and viability was validated by cytometry using appropriate marker for viability, CD8, CD4, CD3, and CD45. […]
# 72 hours after co-culture of U87-MG cells and CD3+ T cells, all cells from the wells were harvested and specific U87-MG cell death was evaluated after immunostaining of CD45 negative cells with DAPI and fluorescent annexin V followed by cytometry analysis.
# [3] = biological target: T2, HLA-A*0201 molecule on human T2 cells (human); assay: T2 cell HLA-A*0201 binding assay, flow cytometry
# T2 construct: MHC class I molecule on T2 cells; also called HLA.A2.01
# Experimental: T2 cells (2.10⁵ cells per well) were incubated with decreasing concentrations of peptides from 100 μM to 0.1 μM in a AIMV medium supplemented with 100 ng/μl of human β2m at 37° C. for 16 hours.
# The analysis was performed by FACS (Guava Easy Cyte). […] The relative affinity is then determined as follows:
# [4] = ex vivo re-stimulation with IL13RA2-B pAg 10 μM
# [5] = ex vivo re-stimulation with IL13RA2-H pAg 10 μM
molecule,measurement,setting,value
"KPSVFLLTL (Sequence variant) [H2 Ld B5, bacterial peptide from microbiota of BALB/c mice, variant of Phtf1 peptide]",T cell responses in the ELISPOT-IFNγ assay (in words),[1],induced improved T cell responses
same,T cell responses in the ELISPOT-IFNγ assay against the murine reference epitopes (in words),[1],also induced improved T cell responses
"LMDLSTTPL (listed as Homo sapiens) [SEQ ID NO: 59, reference compound]",Concentration inducing 20% of expression of the HLA-A*0201,HLA-A*0201,12.6 µM
same,Binding to HLA-A*0201 (in words),HLA-A*0201; in vitro,bind
same,Mean fluorescence intensity,HLA-A*0201; peptide at 3 μM,0.9
same,Mean fluorescence intensity,HLA-A*0201; peptide at 25 μM,65.4
same,Mean fluorescence intensity,HLA-A*0201; peptide at 100 μM,77.6
"WLPFGFILI (listed as Homo sapiens) [SEQ ID NO: 1, reference compound]","Percentage of ConA-induced response (mean+/-SEM), ELISPOT-IFNγ",[2]; [4],2.0%
same,"Percentage of ConA-induced response (mean+/-SEM), ELISPOT-IFNγ",[2]; [5],1.1%
same,U87 cell lysis (in words),U87 cells,not
"GAMLVGAVL (Sequence variant) [H2 Db B2, bacterial peptide from microbiota of C57BL/6 mice, variant of Stra6 peptide]",T cell responses in the ELISPOT-IFNγ assay (in words),[1],induced improved T cell responses
same,T cell responses in the ELISPOT-IFNγ assay against the murine reference epitopes (in words),[1],also induced improved T cell responses
FLPFGFILV (sequence variant) [SEQ ID NO: 18],"Percentage of ConA-induced response (mean+/-SEM), ELISPOT-IFNγ",[2]; [4],56.3%
same,"Percentage of ConA-induced response (mean+/-SEM), ELISPOT-IFNγ",[2]; [5],32.3%
same,T cell responses in the ELISPOT-IFNγ assay (in words),"[2]; β/A2/DR3 mice, vaccination, compared to IL13RA2-H-vaccinated animals",induced improved T cell responses
same,U87 cell lysis (in words),U87 cells,U87 cell lysis was observed
"LMDLSTTEV (also called FOXM1-B2 pAg) [bacterial peptide FOXM1-B2 (SEQ ID NO: 75, LMDLSTTEV)]",concentration inducing 20% of expression of HLA-A*0201,[3],6.7 µM
B1,concentration inducing 20% of expression of HLA-A*0201,[3],12.6 µM
B2,concentration inducing 20% of expression of HLA-A*0201,[3],100 µM
B3,concentration inducing 20% of expression of HLA-A*0201,[3],4.4 µM
